Assay results taken from article PMC9182188, “Isoquinoline Alkaloid Contents in Macleaya cordata Extracts and Their Acetylcholinesterase and Butyrylcholinesterase Inhibition” (Molecules, 2022).
In brackets after ≈: the same amount, converted by molar mass. Like-named read-outs stand apart in the source and are kept apart here.

Key:
acetylcholinesterase [1] = target: T1, acetylcholinesterase (Homo sapiens, UniProt P22303); experiment: Kinetic analysis of acetylcholinesterase inhibition (Lineweaver-Burk and secondary plots); assay type: biochemical; settings: for type of acetylcholinesterase inhibition: Lineweaver-Burk and Dixon plots; for Ki: estimated from slope of Lineweaver-Burk plots vs inhibitor concentration, read-out: Ki (inhibition constant), acetylcholinesterase
T1 construct: purchased Sigma-Aldrich
T1 sequence (P22303 32-614, species assumed): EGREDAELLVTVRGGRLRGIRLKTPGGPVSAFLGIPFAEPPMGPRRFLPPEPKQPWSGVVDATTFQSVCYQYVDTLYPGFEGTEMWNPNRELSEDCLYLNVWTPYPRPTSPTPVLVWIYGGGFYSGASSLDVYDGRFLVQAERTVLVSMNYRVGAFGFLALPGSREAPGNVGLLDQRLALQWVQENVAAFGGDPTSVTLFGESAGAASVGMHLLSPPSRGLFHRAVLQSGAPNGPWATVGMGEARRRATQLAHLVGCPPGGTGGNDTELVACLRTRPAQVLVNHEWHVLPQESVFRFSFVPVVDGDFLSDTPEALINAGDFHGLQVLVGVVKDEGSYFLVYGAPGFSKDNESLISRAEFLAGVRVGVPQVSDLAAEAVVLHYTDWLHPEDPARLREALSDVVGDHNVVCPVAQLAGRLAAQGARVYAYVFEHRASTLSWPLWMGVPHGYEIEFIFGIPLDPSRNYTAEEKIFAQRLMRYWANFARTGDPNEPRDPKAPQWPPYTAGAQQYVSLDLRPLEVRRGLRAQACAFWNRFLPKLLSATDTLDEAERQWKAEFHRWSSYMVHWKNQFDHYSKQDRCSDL
Description: The type of inhibition and inhibition constants (Ki value) of the compounds were investigated using Lineweaver–Burk and Dixon plots (Figure 5 and Figure 6).
The Ki values were estimated by plotting the slope of the individual Lineweaver–Burk plots versus the inhibitor concentrations (Figure 5B and Figure 6B).
For determination of 5-thio-2-nitro-benzoic acid, the product of reaction between the thiocholine with Ellman’s reagent, HPLC-DAD method was applied. The chromatographic analysis was performed in the same conditions as was used for determination of cholinesterase activity described above. Quantification of 5-thio-2-nitro-benzoic acid was performed by a calibration curve method. 5-thio-2-nitrobenzoic acid was prepared from 5′-dithiobis-(2-nitrobenzoic acid) as described by Landino et al.. 0.5 g of 5′-dithiobis-(2-nitrobenzoic acid) in 25 mL 0.5 M Tris–HCl, pH 8.8, was treated with 2.5 mL β-mercaptoethanol. The pH of the solution was adjusted to 1.5 with 6M HCl. 5-thio-2-nitro-benzoic acid was formed after 6–8 h at 4 °C. The crystals of -thio-2-nitro-benzoic acid were filtered and washed with cold 0.1 M HCl. Types of inhibition were determined by the graphical analysis of Lineweaver–Burk plots and its secondary plots.

butyrylcholinesterase [2] = target: T2, butyrylcholinesterase (Homo sapiens, UniProt P06276); experiment: Butyrylcholinesterase inhibitory activity by HPLC-DAD (Ellman reaction product TNBA); assay type: biochemical; settings: alkaloid standards, 0.2 U/mL enzyme, 15 min at 37 °C
T2 construct: purchased Sigma-Aldrich
T2 sequence (P06276 29-602): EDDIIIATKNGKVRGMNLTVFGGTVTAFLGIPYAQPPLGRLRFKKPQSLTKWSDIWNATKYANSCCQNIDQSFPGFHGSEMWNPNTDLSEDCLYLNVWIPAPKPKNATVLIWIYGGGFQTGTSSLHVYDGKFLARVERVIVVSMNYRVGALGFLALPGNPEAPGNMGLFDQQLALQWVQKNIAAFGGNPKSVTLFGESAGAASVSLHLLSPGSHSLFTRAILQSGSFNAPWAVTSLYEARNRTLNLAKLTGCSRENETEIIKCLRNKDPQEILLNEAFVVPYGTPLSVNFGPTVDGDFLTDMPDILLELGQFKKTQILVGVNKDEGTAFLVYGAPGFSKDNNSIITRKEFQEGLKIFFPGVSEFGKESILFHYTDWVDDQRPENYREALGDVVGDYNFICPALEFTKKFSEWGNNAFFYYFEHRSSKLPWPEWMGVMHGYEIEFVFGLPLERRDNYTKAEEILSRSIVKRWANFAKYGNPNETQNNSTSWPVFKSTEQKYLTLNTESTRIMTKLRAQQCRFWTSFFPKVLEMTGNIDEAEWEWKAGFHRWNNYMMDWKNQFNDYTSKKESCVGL
Method: For determination of butyrylcholinesterase inhibitory activity of alkaloid standards and plant extracts by HPLC analysis was performed on the same apparatus, column and mobile phase as determination of acetylcholinesterase inhibitory activity.
(§1) Samples for determination of butyrylcholinesterase inhibitory activity were prepared by addition of 50 µL of butyrylthiocholine iodide, 50 µL of 5′-dithiobis-(2-nitrobenzoic acid), 50 µL of butyrylcholinesterase at concentration 2 U/mL and phosphate buffer at pH 7.8 to obtaining 500 µL of final solution. […] All components were mixed and samples were incubated for 15 min at 37 °C. Samples were filtrated by syringe filter (CHROMAFIL Xtra, PVDF-29/25 0.20 µm) and injected into HPLC system. […] All experiments were performed in triplicates.

[3] = system: swine or human cell lines; settings: cited from earlier work
acetylcholinesterase [4] = target: T1, acetylcholinesterase; assay type: biochemical; settings: alkaloid standards; HPLC-DAD; 0.2 U/mL enzyme; 15 min at 37 °C; pH 7.8
Method: For determination of acetylcholinesterase inhibitory activity of alkaloid standards and plant extracts by HPLC analysis was performed on the same apparatus as determination of alkaloid contents on Polar RP column with mobile phase A containing methanol and 0.0025 M diethylamine, mobile phase B containing acetate buffer at pH 3.8 and 0.0025 M diethylamine, mobile phase in gradient elution: 0–15 min, 10% A; 15–30 min, 10–70% A; 30–60 min, 70% A. Flow rate was 1 mL/min.
as §1, with “acetylcholinesterase” for “butyrylcholinesterase”, “acetylthiocholine” for “butyrylthiocholine”

pig livers = settings: 32P-post-labeling assay; cited from earlier work
butyrylcholinesterase [5] = target: T2, butyrylcholinesterase; settings: modified Ellman's method; read-out: IC50 against butyrylcholinesterase; cited from earlier work
acetylcholinesterase [6] = target: T1, acetylcholinesterase; settings: modified Ellman's method; read-out: IC50 against acetylcholinesterase; cited from earlier work
[7] = pH 7.8, read-out: IC50 values Butyrylcholinesterae
[8] = pH 7.8, read-out: IC50 values Butyrylcholinesterae (μg/mL) (converted)

Structure (SMILES) | type of acetylcholinesterase inhibition (acetylcholinesterase [1]) | Ki (acetylcholinesterase [1]) [nM] | IC50 (butyrylcholinesterase [2]; [7]) [µM] | IC50 (butyrylcholinesterase [2]; [8]) [µM] | toxicity [3] | IC50 (acetylcholinesterase [4]) [nM] | DNA adducts (pig livers) | IC50 (butyrylcholinesterase [2]; IC50 values Butyrylcholinesterae (μM), pH 7.8) [µM] | IC50 (butyrylcholinesterase [2]; IC50 values Butyrylcholinesterae (μg/mL), pH 7.8) [µM] | IC50 values Acetylcholinesterase (acetylcholinesterase [4]) [µg/mL] | IC50 (butyrylcholinesterase [5]) [nM] | IC50 (acetylcholinesterase [6]) [nM]
C[n+]1cc2c3c(ccc2c2ccc4cc5c(cc4c21)OCO5)OCO3 [Sanguinarine, sanguinarine] | noncompetitive | 200 | 9.82 ± 0.91 | 9.81 | low toxicity | 5570 ± 470 | no DNA adducts |  |  |  |  | 
CN1CCc2cc3c(cc2C(=O)Cc2ccc4c(c2C1)OCO4)OCO3 [Protopine, protopine] |  |  |  |  |  |  |  | 52.8 ± 4.81 | 52.8 | 24.67 (≈ 69.8 µM) |  | 
COc1ccc2c(c[n+](C)c3c4cc5c(cc4ccc23)OCO5)c1OC [Chelerythrine, chelerythrine] | competitive | 180 | 2.15 ± 0.19 | 2.15 | low toxicity | 720 ± 80 | no DNA adducts |  |  |  | 3550 | 1030
